Results from US20230255935A1, “ANTI-VIRAL COMPOUNDS AND METHODS FOR SCREENING SAME AND TREATING VIRAL INFECTIONS” (priority 2020, published 2023).
pEC50: −log10 of the molar value. Like-named read-outs stand apart in the source and are kept apart here.

How the values were obtained:
MERS-CoV [1] = test: microbe, parasite or virus in culture; conditions: Middle East respiratory syndrome-related coronavirus, Vero C1008, 48 h
in vitro = conditions: African green monkey
MHV [2] = test: MHV-infected mice treated with PSX-01 (clinical score, body weight, liver histology); conditions: PSX-01 10 mM intraperitoneal
[3] = target: T1, full-length MERS-CoV N protein (Middle East respiratory syndrome-related coronavirus, UniProt K9N4V7)
MHV [4] = format: cell-based, mouse hepatitis virus (MHV)
MERS-CoV N-NTD [5] = target: T2, MERS-CoV N-NTD (Middle East respiratory syndrome-related coronavirus, UniProt K9N4V7)
SARS-CoV2 [6] = system: SARS-CoV2
MERS-CoV [7] = format: cell-based
PEDV = format: cell-based, porcine epidemic diarrhea virus (PEDV)
MERS-CoV [8] = format: cell-based; remark: listed apart in the source
MERS-CoV N protein = format: cell-based
SARS-CoV2 [9] = format: cell-based
[10] = target: T1, full-length MERS-CoV N protein; remark: listed apart in the source
MERS-CoV [11] = format: cell-based; remark: listed apart in the source
MERS-CoV N-NTD [12] = target: T2, MERS-CoV N-NTD; remark: listed apart in the source
MERS-CoV [13] = system: MERS-CoV
[14] = target: T1, full-length MERS-CoV N protein; remark: listed apart in the source

## O=C(OCc1ccccc1)N1c2ccccc2CC1CO (centres unmarked) [Compound P1, benzyl 2-(hydroxymethyl)-1-indolinecarboxylate]
MERS-CoV [1]
  pEC50: < 4.00
In vitro
  CC50: 460 µM

## CCc1cccc2c3c([nH]c12)C(CC)(CC(=O)O)OCC3 (centres unmarked) [Compound P2, etodolac]
MERS-CoV [1]
  pEC50: < 4.00
In vitro
  CC50: 570 µM

## CN(C)Cc1c[nH]c2ccc(OCc3ccccc3)cc12 [PSX-01, 5-benzyloxygramine]
MHV [2]; 4 h before MHV 10^4 pfu, mice
  appearance (clinical score): prevent the appearance change caused by MHV
MHV [2]; MHV infection, day 7
  liver histology (H&E stain): rescue the increases of adipocytes and inflammation
[3]
  N protein thermal denaturation: delayed N protein thermal denaturation
MHV [4]
  cytopathic effect: significantly reduce the cytopathic effect
MERS-CoV N-NTD [5]
  N-NTD denaturation melting temperature: 45 °C
SARS-CoV2 [6]
  pEC50: 4.46
  TI (CC50/EC50): 23
MERS-CoV [7]
  extracellular viral titer (plaque assay): affected the viral titer
  viral production (plaque assay): halted
PEDV
  cytopathic effect: significantly reduce the cytopathic effect
MERS-CoV [8]
  cytopathic effect: significantly reduce the cytopathic effect
MERS-CoV N protein
  N protein expression: suppressed N protein expression in most cells
  intracellular N protein distribution: condensation of the intracellular N protein fluorescence signal
SARS-CoV2 [9]
  viral titer (plaque assay): affected the viral titer
[10]
  maximum dimension (Dmax) of N protein: 230
MERS-CoV [11]
  suppression of viral RNA replication: 40%
  viral RNA replication: halted
MERS-CoV N-NTD [12]
  binding to the N protein relative to the other leads: bound more tightly to the N protein than P1 or P2
  shift in the intrinsic N-NTD fluorescence spectrum: comparatively larger blue shift
MERS-CoV [13]
  pEC50: 4.49
  TI (CC50/EC50): 25.1
[14]
  shift in the fluorescence spectrum of full-length N protein: “blue shift” was observed
